These results are taken from paper PMC11908749 (Chemistry & Biodiversity, 2025).

What all share (assay type): cell-based
Assay [1] relates to U‐251 (human glioblastoma cell line). Put plainly: SRB cytotoxicity, U-251 cells. The conditions noted are these: read-out: IC50 U‐251, non-linear regression.
The subject of assay [2] is SK‐LU‐1 (human lung adenocarcinoma). Description: SRB cytotoxicity, SK-LU-1 cells. The conditions noted are these: read-out: IC50 SK‐LU‐1, non-linear regression.
In assay [3] the test system is MCF‐7 (human mammary adenocarcinoma). Description: SRB cytotoxicity, MCF-7 cells. The conditions noted are these: read-out: IC50 MCF‐7, non-linear regression.

For the substance curcumin, the results for the 50% inhibitory concentration (IC50) in assay [1], in assay [2] and in assay [3] were 20.5 ± 1.7 µM, 12.9 ± 0.7 µM and 18.4 ± 0.9 µM, respectively.

As a reminder, the IC50 is the point on the concentration scale where inhibition reaches its midpoint.
